One may read the IC50 as the concentration at which inhibition is half-maximal. By koff is commonly meant the rate constant with which the complex falls apart. The low end stands for a long-lived complex, the high end for a short-lived complex.

We go through 2 molecules from US20150306096A1, “8'-HYDROXY-DIHYDROERGOTAMINE COMPOUNDS AND COMPOSITIONS” (MAP Pharmaceuticals, Inc., priority 2012, published 2015).

For test [1], the target named is T1, human D2L receptor (Homo sapiens, UniProt P14416).
T1 construct: purchased Euroscreen; host or cells: CHO-K1
T1 sequence (P14416 whole entry): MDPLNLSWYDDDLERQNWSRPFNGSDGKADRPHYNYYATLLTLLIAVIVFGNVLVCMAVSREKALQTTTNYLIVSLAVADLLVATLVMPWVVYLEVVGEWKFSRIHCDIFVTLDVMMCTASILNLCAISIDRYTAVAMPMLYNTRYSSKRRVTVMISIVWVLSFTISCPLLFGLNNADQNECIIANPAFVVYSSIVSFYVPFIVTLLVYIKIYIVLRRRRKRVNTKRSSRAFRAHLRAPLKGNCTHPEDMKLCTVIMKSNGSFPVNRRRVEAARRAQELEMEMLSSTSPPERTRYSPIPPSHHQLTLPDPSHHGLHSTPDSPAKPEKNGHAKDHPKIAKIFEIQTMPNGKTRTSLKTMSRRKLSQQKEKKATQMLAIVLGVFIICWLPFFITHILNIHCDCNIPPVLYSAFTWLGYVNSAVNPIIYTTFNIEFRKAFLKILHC
The experiment in a line: Radioligand competition binding and kinetics, CHO-K1 membranes. The method, then:
(§1) For kinetics of radioligand competitive binding, serial dilutions were performed from master solution in 100% DMSO to obtain intermediate concentrations 200-fold higher than the concentrations to be tested. Each test sample was diluted 100-fold in the assay buffer and dispensed into the test plate.
D2L Radioligand Binding Assay
Assay buffer: 25 mM HEPES (pH 7.4), 5 mM MgCl2, 1 mM CaCl2, BSA protease free 0.5% Washing buffer: 25 mM HEPES (pH 7.4), 5 mM MgCl2, 1 mM CaCl2 Membrane: recombinant CHO-K1-D2L membranes thawed on ice and diluted in assay buffer (2 μg/well)
Ligand: Risperidone (Tocris Bioscience, 2865)
Radioligand: [^3H]-Spiperone (TRK818, diluted in assay buffer for a final concentration of 3 nM) Filter plate: GF/B Unifilter plate (Perkin Elmer, 6005177) presoaked in 0.5% PEI for 2 hours at RT.
(§2) Determination of the Kon constant. Radioligand association kinetics on each receptor were performed by adding in the wells of a 96 well plate 50 μL of radioligand and 50 μL of membrane extracts. The samples were incubated for the times reported in Table 3 below at a temperature optimized for each receptor and filtered over a filter plate. After washing the filters 5 times with 0.5 mL of ice-cold washing buffer, 50 μL of Microscint 20 (Packard) were added to the filters and the plates were incubated 15 min on an orbital shaker and then counted for 1 min/well. This allowed determination of the kobs for each radioligand. Association kinetics were performed at 5 different radioligand concentrations optimized for each receptor (see Table 3 below) to determine 5 different kobs. The different kobs were then plotted against the [radioligand] and the K. was calculated using the following equation: kon=(kobs−koff)[radioligand].
Determination of the Koff constant. Radioligand dissociation kinetics on each receptor were performed by adding in the wells of a 96 well plate 45 μL of radioligand and 45 μL of membrane extracts. The samples were incubated as reported in Table 4 below at a temperature optimized for each receptor until binding equilibrium was reached as determined by the association kinetics experiment. Then, 100 μL of cold competitor (reference ligand) were added at a 200 fold excess (final concentration) for the times reported in Table 4 at the optimized temperature. The samples were then filtered over a filter plate. After washing the filters 5 times with 0.5 mL of ice-cold washing buffer, 50 μL of Microscint 20 (Packard) were added to the filters and the plates were incubated 15 min on an orbital shaker and then counted for 1 min/well. This allowed determination of the koff for each radioligand.
Determination of IC50 and Ki constant for each test compound. Radioligand competition binding on each receptor were performed by adding in the wells of a 96 well plate […] of test compound at increasing concentration as reported in Table 5 below, 25 μL of radioligand and 25 μL of membrane extracts. The samples were incubated for 60 min (or 4 hours for a second experiment on 5-HT2B receptors) at a temperature optimized for each receptor and then filtered over a filter plate. After washing the filters 5 times with 0.5 mL of ice-cold washing buffer, 50 μL of Microscint 20 (Packard) were added to the filters and the plates were incubated 15 min on an orbital shaker and then counted for 1 min/well. The test compounds were tested in duplicate at the nanomolar concentrations reported below in Table 5.
Determination of kon and koff constants for each test compound. Each compound was first assessed in a pilot experiment to evaluate its effect on the kinetic binding of each receptor-radioligand pair. These pilot experiments were performed at on compound concentration and were composed of 10 time-points measurements in duplicate (2, 5, 10, 20, 30, 45, 60, 90, 120 and 150 minutes). […]

Test [2] deals with T2, human 5-HT1A receptor (Homo sapiens, UniProt P08908).
T2 construct: purchased Euroscreen; host or cells: CHO-K1
T2 sequence (P08908 1-422): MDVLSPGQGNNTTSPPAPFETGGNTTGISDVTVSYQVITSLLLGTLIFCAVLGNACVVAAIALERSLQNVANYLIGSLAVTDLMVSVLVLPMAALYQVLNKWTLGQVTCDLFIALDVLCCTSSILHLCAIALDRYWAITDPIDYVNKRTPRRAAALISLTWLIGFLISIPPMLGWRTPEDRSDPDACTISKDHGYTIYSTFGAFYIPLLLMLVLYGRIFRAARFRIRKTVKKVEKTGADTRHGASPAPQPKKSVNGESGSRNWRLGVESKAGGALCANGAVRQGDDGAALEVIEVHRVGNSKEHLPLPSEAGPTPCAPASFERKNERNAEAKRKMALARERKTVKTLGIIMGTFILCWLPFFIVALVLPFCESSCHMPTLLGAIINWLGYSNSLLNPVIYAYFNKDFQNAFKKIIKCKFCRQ
The test is described as above. The method, then: as §1
as §2, with “Association kinetics were performed at 5 different radioligand concentrations optimized for each receptor (see Table 3 below) to determine 5 different kobs.” left out
Determination of the Koff constant. […] The samples were incubated as reported in Table 4 below at a temperature optimized for each receptor until binding equilibrium was reached as determined by the association kinetics experiment. […] After washing the filters 5 times with 0.5 mL of ice-cold washing buffer, 50 μL of Microscint 20 (Packard) were added to the filters and the plates were incubated 15 min on an orbital shaker and then counted for 1 min/well. […]
Determination of IC50 and Ki constant for each test compound. […] After washing the filters 5 times with 0.5 mL of ice-cold washing buffer, 50 μL of Microscint 20 (Packard) were added to the filters and the plates were incubated 15 min on an orbital shaker and then counted for 1 min/well. […]
Determination of kon and koff constants for each test compound. Each compound was first assessed in a pilot experiment to evaluate its effect on the kinetic binding of each receptor-radioligand pair. […]

Test [3] relates to NMDA (NR1/NR2A/NR2B/NR2C/NR2D). The experiment in a line: NMDA receptor Fluo-8 calcium FLIPR assay (agonist/antagonist). It counts as cell-based, human. The conditions noted are these: NMDA receptors. The method, then: Additional receptor agonist/agonist activity assessments were performed using the 8′-OH DHE test compound. Table 12 contains a summary of the cell lines (CHO-K1/HEK293 transfected with relevant human receptor) and the assays performed to detect any agonist or antagonist activity.
Studies for NMDA receptors (the NR1, NR2A, NR2B, NR2C and NR2D receptors) were conducted to monitor receptor activity of the test 8′-OH DHE compound using the Fluo-8 calcium kit and a Fluorescence Imaging Plate Reader (FLIPR^TETRA™) instrument. The following channels were evaluated: Cloned NMDA receptor (NR1/NR2A) channel (encoded by the GRIN1 and GRIN2A genes, co-expressed in HEK293 cells); Cloned NMDA receptor (NR1/NR2B) channel (encoded by the GRIN1 and GRIN2B genes, co-expressed in HEK293 cells); Cloned NMDA receptor (NR1/NR2C) channel (encoded by the GRIN1 and GRIN2C genes, co-expressed in HEK293 cells); and Cloned NMDA receptor (NR1/NR2D) channel (encoded by the GRIN1 and GRIN2D genes, transiently co-expressed in HEK293 cells).
For the agonist assessment, the effect of the test 8′-OH DHE compound was evaluated in the absence of the positive control agonist. The signal, elicited in the presence of the agonist (100 μM Glutamic acid+20 μM Glycine), was set to 100% activation and the signal in the presence of the vehicle control (Mg^2+-free HB-PS) was set to 0% activation. […]

Read-outs that look alike come from different tables or passages of the source.

The molecule `CN1C[C@H](C(=O)N[C@]2(C)O[C@@]3(O)[C@@H]4CCCN4C(=O)[C@H](Cc4ccccc4)N3C2=O)C[C@@H]2c3cccc4[nH]cc(c34)C[C@H]21` [DHE, Dihydroergotamine] came in with an IC50 in test [1] of 231 nM. For the same molecule, in test [1] (D2L), the “Avg Dissociation half-life” value is 14.4 min and the koff was 0.000792 s⁻¹. Also, the IC50 in test [2] was determined as 0.27 nM.
In the case of `CN1C[C@H](C(=O)N[C@]2(C)O[C@@]3(O)[C@@H]4CCC(O)N4C(=O)[C@H](Cc4ccccc4)N3C2=O)C[C@@H]2c3cccc4[nH]cc(c34)C[C@H]21` (stereo partly drawn) [8′-OH DHE, 8′-Hydroxy-Dihydroergotamine], in test [1] (D2L), the “Avg Dissociation half-life” value worked out at 9 min. For the same molecule, the “Avg Koff” value in test [1] (D2L) was 0.00127 s⁻¹. Also, the IC50 in test [1] (D2L, [3H]-Spiperone, read-out: IC50 from binding assay) is 297 nM; in test [2] (5-HT1A, [3H]-WAY100635, read-out: IC50 from binding assay) it was 0.43 nM. Moreover, in test [3], the “Activity (Agonism: EC50; Antagonism: IC50)” value is “Inactive”.
